Legend:
Format in all cases: in vivo
Arabidopsis thaliana [1] = assay: HTPS post-emergence application on miniature dicot model plant; details: for Emax: Arabidopsis thaliana, post-emergence, green area (RGB), read-out: Max Inhibition (%); for ED50 (g/ha): dose-response of normalized green area
Description: (§1) The plates were placed in a controlled greenhouse in a random order inside a bath which allows flooding irrigation with tap water supplemented with a fertilizer. Applied compounds were dissolved into a final solution of 50% acetone, 49.9% DDW, 0.1% tween-20. A 96 well plate was used as a stock plate for preparing application solutions for 8 repeats. Each row contained different concentrations per chemical. Maximal concentration for application was 1.5 Kg/Ha and dilution factor is 2.5. Chemical application was performed one day after thinning out in a chemical hood. […] applied on first two true leaves in each well using 12 channel pipettes. Data collection: RGB (red, green, blue) data for green area per well was documented using camera. Data is collected at a few time points during the experiment: one day after thinning and before chemical application, two-, six- or nine-days post application. During the last two documentations, visual phenotyping was performed. Data analysis: Given RGB results and visual phenotype scores, a student t-test conducted to compare between treatment and control performance for continuous data (RGB) and Fisher exact test to analyze the non-continuous data (phenotypic scores). Dose-Response curves are generated for each treatment to infer ED50 and max. inhibition parameters, using treatment's log concentration range as the […] variable and normalized green area. Plate imaging performed at 11 and 18 DAA. RGB data for green area per well was documented and used to extract % inhibition. Dose-Response curves were built for each treatment to infer EC50, EC75 and EC90 parameters, using treatment's log concentration range as the independent variable and normalized green area as the dependent variable. Treatments were compared to controls performance given RGB results and using student's t-test (p-val≤0.05). Compounds 104-154 were applied in either or both pre- and post-emergence mode to either or both monocot and dicot model plants, following the methods described above. The compounds were applied as a gradient of concentrations as listed above, from which the ED50 was calculated.

[2] = system: monocot and eudicot weeds species; assay: In-planta LTP weed panel, overall assessment; details: for growth inhibition (in words): dicot species, either pre- or post-emergence applications
Amaranthus palmeri [3] = assay: LTP pre-emergence greenhouse test; details: Dosage 2000 g/ha
Description: (§2) A basic panel of 8 weed species (Table 3) were sowed in 4×4×7 cm plastic pots containing inert sand (Sweet sand), intensively washed using osmosis water. Each specie was sowed in a separate pot. In each pot 10-15 seeds were sowed according to the specie viability. Sowing was performed one day before application. The plants were grown for 21 days in a controlled greenhouse (26±2° C. day 20±2° C. night). Hood irrigation (tap water+Shefer 5:3:8 8 mM) was given at a 50% water content by weight. Compounds were soluble in water (DDW), and commercial herbicide control was soluble in formulation B (Table 4). Application was conducted with an industrial sprayer (TeeJet 6502E nozzle) at a rate of 2 kg/ha and spray volume of […]. Pre-emergence advanced dose response experiment application was conducted at six rates between 1-0.0312 kg/ha and spray volume of […]. Percentage of emergence was evaluated at 15 DAA. Visual phenotyping was recorded using a scale of 0-6 (0: no visible effect, 6: maximum effect) at 18 DAA. All experiments included an untreated control, a solvent control and a positive control (commercial herbicide A.I.). […] Statistical analysis for plant emergence determined by % emergence ≥50 and T test (pval≤0.05), as well as Wilcox test (pval≤0.05).

Ambrosia artemisiifolia [4] = assay: LTP pre-emergence greenhouse test; details: Dosage 2000 g/ha
Description: as §2

Poa annua [5] = assay: LTP pre-emergence greenhouse test; details: Dosage 2000 g/ha
Description: as §2

Alopecurus myosuroides [6] = assay: LTP pre-emergence greenhouse test; details: Dosage 2000 g/ha
Description: as §2

Matricaria chamomilla [7] = assay: LTP pre-emergence greenhouse test; details: Dosage 2000 g/ha
Description: as §2

Abutilon theophrasti [8] = assay: LTP pre-emergence greenhouse test; details: Dosage 2000 g/ha
Description: as §2

Setaria viridis [9] = assay: LTP pre-emergence greenhouse test; details: Dosage 2000 g/ha
Description: as §2

Lolium perenne [10] = assay: LTP pre-emergence greenhouse test; details: Dosage 2000 g/ha
Description: as §2

[11] = system: monocot and dicot model plants; assay: In-planta HTPS, overall assessment; details: on monocots
Description: The plates were placed in a controlled greenhouse in a random order inside a bath which allows flooding irrigation with tap water supplemented with a fertilizer. Applied compounds were dissolved into a final solution of 50% acetone, 49.9% DDW, 0.1% tween-20. A 96 well plate was used as a stock plate for preparing application solutions for 8 repeats. Each row contained different concentrations per chemical. Maximal concentration for application was 1.5 Kg/Ha and dilution factor is 2.5. Chemical application was performed one day after thinning out in a chemical hood. […] applied on first two true leaves in each well using 12 channel pipettes. Data collection: RGB (red, green, blue) data for green area per well was documented using camera. Data is collected at a few time points during the experiment: one day after thinning and before chemical application, two-, six- or nine-days post application. During the last two documentations, visual phenotyping was performed. Data analysis: Given RGB results and visual phenotype scores, a student t-test conducted to compare between treatment and control performance for continuous data (RGB) and Fisher exact test to analyze the non-continuous data (phenotypic scores). […] The compounds were applied as a gradient of concentrations as listed above, from which the ED50 was calculated.

Alopecurus myosuroides [12] = assay: LTP post-emergence greenhouse test; details: Dosage 2000 g/ha
Setaria viridis [13] = assay: LTP post-emergence greenhouse test; details: Dosage 2000 g/ha
Poa annua [14] = assay: LTP post-emergence greenhouse test; details: Dosage 2000 g/ha
Matricaria chamomilla [15] = assay: LTP post-emergence greenhouse test; details: Dosage 2000 g/ha
Lolium perenne [16] = assay: LTP post-emergence greenhouse test; details: Dosage 2000 g/ha
Amaranthus palmeri [17] = assay: LTP post-emergence greenhouse test; details: Dosage 2000 g/ha
Arabidopsis thaliana [18] = assay: HTPS pre-emergence application on dicot model plant; details: for ED50 (g/ha): dose-response of normalized green area; for Max Inhibition (%): green area (RGB)
Description: as §1, with “area. […]” for “area.”

Abutilon theophrasti [19] = assay: LTP post-emergence greenhouse test; details: Dosage 2000 g/ha
Ambrosia artemisiifolia [20] = assay: LTP post-emergence greenhouse test; details: Dosage 2000 g/ha

SMILES: CCC(O)C(N)CCCCC(=O)O (centres unmarked) [Compound 113]
- Emax (Arabidopsis thaliana [1]): 100%
- ED50 (g/ha) (Arabidopsis thaliana [1]): 26 g/ha

SMILES: O=C(O)CCCCC1CCCN1 (centres unmarked) [Compound 148]
- activity (in words) ([2]; dicots and monocots, applied pre-emergence): good to moderate activity
- Herbicidal activity (In-planta), LTP-Pre emergence, Amaranthus palmeri (Amaranthus palmeri [3]): 60-80
- Herbicidal activity (In-planta), LTP-Pre emergence, Ambrosia artemisiifolia (Ambrosia artemisiifolia [4]): 60
- Herbicidal activity (In-planta), LTP-Pre emergence, Poa annua (Poa annua [5]): 60-80
- Herbicidal activity (In-planta), LTP-Pre emergence, Alopecurus myosuroides (Alopecurus myosuroides [6]): 0
- Herbicidal activity (In-planta), LTP-Pre emergence, Matricaria chamomilla (Matricaria chamomilla [7]): 60-80
- Herbicidal activity (In-planta), LTP-Pre emergence, Abutilon theophrasti (Abutilon theophrasti [8]): 40-60
- Herbicidal activity (In-planta), LTP-Pre emergence, Setaria viridis (Setaria viridis [9]): 40
- Herbicidal activity (In-planta), LTP-Pre emergence, Lolium perenne (Lolium perenne [10]): 0
- Emax (Arabidopsis thaliana [1]): 100%
- ED50 (g/ha) (Arabidopsis thaliana [1]): 30 g/ha

SMILES: CCC(N)CCCCC(=O)O (centres unmarked) [Compound 149]
- activity (in words) [11]: very good activity
- Emax (Arabidopsis thaliana [1]): 100%
- ED50 (g/ha) (Arabidopsis thaliana [1]): 90 g/ha

SMILES: COC(=O)CCCSC1CCCC1N (centres unmarked) [Compound 146]
- growth inhibition (in words) [2]: moderate growth inhibition
- Herbicidal activity (In-planta), LTP-Pre emergence, Amaranthus palmeri (Amaranthus palmeri [3]): 60-80
- Herbicidal activity (In-planta), LTP-Pre emergence, Ambrosia artemisiifolia (Ambrosia artemisiifolia [4]): 0
- Herbicidal activity (In-planta), LTP-Pre emergence, Poa annua (Poa annua [5]): 0
- Herbicidal activity (In-planta), LTP-Pre emergence, Alopecurus myosuroides (Alopecurus myosuroides [6]): 0
- Herbicidal activity (In-planta), LTP-Pre emergence, Matricaria chamomilla (Matricaria chamomilla [7]): 0
- Herbicidal activity (In-planta), LTP-Pre emergence, Abutilon theophrasti (Abutilon theophrasti [8]): 0
- Herbicidal activity (In-planta), LTP-Pre emergence, Setaria viridis (Setaria viridis [9]): 60
- Herbicidal activity (In-planta), LTP-Pre emergence, Lolium perenne (Lolium perenne [10]): 40
- Emax (Arabidopsis thaliana [1]): 100%
- ED50 (g/ha) (Arabidopsis thaliana [1]): 80 g/ha

SMILES: CC(C)(C)C(N)c1cccc(C(=O)O)c1 (centres unmarked) [Compound 109]
- Herbicidal activity (In-planta), LTP-Post emergence, Alopecurus myosuroides (Alopecurus myosuroides [12]): 0
- Herbicidal activity (In-planta), LTP-Post emergence, Setaria viridis (Setaria viridis [13]): 0
- Herbicidal activity (In-planta), LTP-Post emergence, Poa annua (Poa annua [14]): 0
- growth inhibition (in words) [2]: moderate growth inhibition
- Herbicidal activity (In-planta), LTP-Pre emergence, Amaranthus palmeri (Amaranthus palmeri [3]): 40
- Herbicidal activity (In-planta), LTP-Pre emergence, Ambrosia artemisiifolia (Ambrosia artemisiifolia [4]): 0
- Herbicidal activity (In-planta), LTP-Pre emergence, Poa annua (Poa annua [5]): 0
- Herbicidal activity (In-planta), LTP-Pre emergence, Alopecurus myosuroides (Alopecurus myosuroides [6]): 0
- Herbicidal activity (In-planta), LTP-Pre emergence, Matricaria chamomilla (Matricaria chamomilla [7]): 0
- Herbicidal activity (In-planta), LTP-Pre emergence, Abutilon theophrasti (Abutilon theophrasti [8]): 0
- Herbicidal activity (In-planta), LTP-Pre emergence, Setaria viridis (Setaria viridis [9]): 0
- Herbicidal activity (In-planta), LTP-Pre emergence, Lolium perenne (Lolium perenne [10]): 0
- Herbicidal activity (In-planta), LTP-Post emergence, Matricaria chamomilla (Matricaria chamomilla [15]): 0
- Herbicidal activity (In-planta), LTP-Post emergence, Lolium perenne (Lolium perenne [16]): 0
- Herbicidal activity (In-planta), LTP-Post emergence, Amaranthus palmeri (Amaranthus palmeri [17]): 40
- ED50 (g/ha) (Arabidopsis thaliana [18]): 24 g/ha
- Herbicidal activity (In-planta), LTP-Post emergence, Abutilon theophrasti (Abutilon theophrasti [19]): 0
- Herbicidal activity (In-planta), LTP-Post emergence, Ambrosia artemisiifolia (Ambrosia artemisiifolia [20]): 40
- Emax (Arabidopsis thaliana [1]): 100%
- ED50 (g/ha) (Arabidopsis thaliana [1]): 200 g/ha

SMILES: NC1CCCCC1CCCC(=O)O (centres unmarked) [Compound 152]
- Emax (Arabidopsis thaliana [1]): 100%
- ED50 (g/ha) (Arabidopsis thaliana [1]): 4 g/ha

SMILES: C[C@@H]1OC(=O)N[C@@H]1CCCCC(=O)O [Compound 106, 5-((4R,5S)-5-methyl-2-oxooxazolidin-4-yl)pentanoic acid]
- Emax (Arabidopsis thaliana [1]): 82%
- ED50 (g/ha) (Arabidopsis thaliana [1]): >1000 g/ha

SMILES: COC(=O)CN(C)C(=O)CCCCC(N)C(C)O (centres unmarked) [Compound 102]
- Emax (Arabidopsis thaliana [1]): 90%
- ED50 (g/ha) (Arabidopsis thaliana [1]): 2 g/ha

SMILES: O=C(O)CCCC1CCCNC1 (centres unmarked) [Compound 154]
- Emax (Arabidopsis thaliana [1]): 100%
- ED50 (g/ha) (Arabidopsis thaliana [1]): 8 g/ha

SMILES: CC(O)C(N)CCCCC(=O)NS(=O)(=O)CC1CCCC1 (centres unmarked) [Compound 101]
- Emax (Arabidopsis thaliana [1]): 100%
- ED50 (g/ha) (Arabidopsis thaliana [1]): 29 g/ha

SMILES: CC(N)CCCCC(=O)O (centres unmarked) [Compound 107]
- Emax (Arabidopsis thaliana [1]): 100%
- ED50 (g/ha) (Arabidopsis thaliana [1]): 200 g/ha

SMILES: O=C(O)CCCCC1CCNC1 (centres unmarked) [Compound 123]
- Emax (Arabidopsis thaliana [1]): 100%
- ED50 (g/ha) (Arabidopsis thaliana [1]): 140 g/ha

SMILES: COC(=O)CCSC1CCCC1N (centres unmarked) [Compound 147]
- Max Inhibition (%) (Arabidopsis thaliana [18]): 100%
- Emax (Arabidopsis thaliana [1]): 50%
- ED50 (g/ha) (Arabidopsis thaliana [1]): 807 g/ha

SMILES: C[C@H]1OC(=O)N[C@H]1CCCCC(=O)O [Compound 105, 5-((4S,5R)-5-methyl-2-oxooxazolidin-4-yl)pentanoic acid]
- Emax (Arabidopsis thaliana [1]): 94%
- ED50 (g/ha) (Arabidopsis thaliana [1]): 430 g/ha

SMILES: NC1CCC(CCCC(=O)O)C1 (centres unmarked) [Compound 143]
- Emax (Arabidopsis thaliana [1]): 100%
- ED50 (g/ha) (Arabidopsis thaliana [1]): 61 g/ha

SMILES: C[C@@H](O)[C@H](N)CCCCC(=O)O [Compound 115]
- Emax (Arabidopsis thaliana [1]): 100%
- ED50 (g/ha) (Arabidopsis thaliana [1]): 13 g/ha

SMILES: C[C@H](O)[C@@H](N)CCCCC(=O)O [Compound 114]
- Emax (Arabidopsis thaliana [1]): 100%
- ED50 (g/ha) (Arabidopsis thaliana [1]): 40 g/ha

SMILES: CCC(C)C(N)c1cccc(C(=O)O)c1 (centres unmarked) [Compound 108]
- ED50 (g/ha) (Arabidopsis thaliana [18]): 175 g/ha
- Max Inhibition (%) (Arabidopsis thaliana [18]): 100%
